IC50 data for 40 molecules are collected here from patent US9624215B2, “Amine derivative or salt thereof” (TOYAMA CHEMICAL CO., LTD., priority 2012, dated 2017).

For this test, the system named is normal human neonatal foreskin epidermal keratinocytes (NHEK-F). The experiment in a line: Cell proliferation inhibition test. In kind it is cell-based. Particulars: Keratinocyte, 72 h, NHEK-F cells, three days incubation, ATPlite or CellTiterGlo, read-out: IC50 (concentration of the compound at which the cell count is reduced by 50%). The method, then: 2×10^3 normal human neonatal foreskin epidermal keratinocytes (NHEK-F) (Kurabo, KK-4009) were suspended in 100 μL of Humedia-EG2 (Kurabo, KK-2150S) medium, plated in a 96-well plate and incubated overnight. The test compound was added on the following day and the cells were incubated for further three days. The cell count was determined using ATPlite (PerkinElmer, 6016739) or CellTiterGlo (Promega, G7573).
The inhibition rate was calculated from the following formula to determine the concentration of the compound at which the cell count is reduced by 50% (IC50). Inhibition rate (%)=100−(cell count in the presence of test compound/cell count in the absence of test compound)×100
`CCc1cc(Nc2ncc(C3CC3)cc2C(=O)O)cc2ccn(CC)c12` [Example 413, 5-cyclopropyl-2-((1,7-diethyl-1H-indol-5-yl)amino)nicotinic acid]: the IC50 fell in the range of 10 to 100 nM.

Regarding `O=C(O)c1cc(C2CC2)cnc1Nc1ccc2cccc(-c3ccccc3)c2c1` [Example 179, 5-cyclopropyl-2-((8-phenylnaphthalen-2-yl)amino)nicotinic acid], the IC50 was no more than 10 nM.

As to `CCc1cnc(Nc2ccc3c(ccn3Cc3ccccc3)c2)c(C(=O)O)c1` [Example 381, 2-((1-benzyl-1H-indol-5-yl)amino)-5-ethylnicotinic acid], the IC50 fell in the range of 10 to 100 nM.

Take `O=C(O)c1cc(C2CC2)cnc1Nc1ccc2c(ccn2CCCC(F)(F)F)c1` [Example 616, 5-cyclopropyl-2-((1-(4,4,4-trifluorobutyl)-1H-indol-5-yl)amino)nicotinic acid]: the IC50 was in the range of 10 to 100 nM.

Consider `O=C(O)c1cc(C2CC2)cnc1Nc1cc2ccn(Cc3ccccc3)c2cc1F` [Example 552, 2-((1-benzyl-6-fluoro-1H-indol-5-yl)amino)-5-cyclopropylnicotinic acid], for which the IC50 is no more than 10 nM.

For `Cn1ccc2cc(Nc3ncc(Cl)cc3C(=O)O)cc(-c3ccccc3)c21` [Example 625, 5-chloro-2-((1-methyl-7-phenyl-1H-indol-5-yl)amino)nicotinic acid], the IC50 fell in the range of 10 to 100 nM.

For the molecule `O=C(O)c1cc(Cl)ccc1Nc1ccc2c(c1)cc(CO)n2Cc1ccccc1` [Example 25, 2-((1-benzyl-2-(hydroxymethyl)-1H-indol-5-yl)amino)-5-chlorobenzoic acid], the IC50 fell in the range of 10 to 100 nM.

Take `CCn1c(C(C)(C)C)cc2cc(Nc3ncc(C4CC4)cc3C(=O)O)ccc21` [Example 158, 2-((2-(tert-butyl)-1-ethyl-1H-indol-5-yl)amino)-5-cyclopropylnicotinic acid]: the IC50 fell in the range of 10 to 100 nM.

Turning to `CSc1nccc(-n2ccc3cc(Nc4ccc(Cl)cc4C(=O)O)ccc32)n1` [Example 319, 5-chloro-2-((1-(2-(methylthio)pyrimidin-4-yl)-1H-indol-5-yl)amino)benzoic acid], the IC50 lay in the range of 10 to 100 nM.

Take `O=C(O)c1cc(C2CC2)cnc1Nc1ccc2c(ccn2CCCc2ccccc2)c1` [Example 618, 5-cyclopropyl-2-((1-(3-phenylpropyl)-1H-indol-5-yl)amino)nicotinic acid]: the IC50 was no more than 10 nM.

Consider `O=C(O)c1cc(Cl)ccc1Nc1cccc2c1ccn2Cc1ccccc1` [Example 6, 2-((1-benzyl-1H-indol-4-yl)amino)-5-chlorobenzoic acid], for which the IC50 lay within 10 to 100 nM.

Turning to `COCCCc1cc(Nc2ncc(C3CC3)cc2C(=O)O)cc2ccn(CC3CC3)c12` [Example 609, 5-cyclopropyl-2-((1-(cyclopropylmethyl)-7-(3-methoxypropyl)-1H-indol-5-yl)amino)nicotinic acid], the IC50 was no more than 10 nM.

On to `O=C(O)c1cc(C2CC2)cnc1Nc1cccc2c(N3CCOCC3)nccc12` [Example 475, 5-cyclopropyl-2-(1-morpholinoisoquinolin-5-ylamino)nicotinic acid], for which the IC50 lay in the range of 100 to 1000 nM.

Take `O=C(O)c1cc(C2CC2)cnc1Nc1cccc2ccccc12` [Example 371, 5-cyclopropyl-2-(naphthalen-1-ylamino)nicotinic acid]: the IC50 lay within 100 to 1000 nM.

`Cn1ccc2cc(Nc3ncc(C4CC4)cc3C(=O)O)cc(-c3cccc(F)c3F)c21` [Example 587, 5-cyclopropyl-2-((7-(2,3-difluorophenyl)-1-methyl-1H-indol-5-yl)amino)nicotinic acid]: the IC50 is no more than 10 nM.

Consider `CCOCCCc1cc(Nc2ncc(C3CC3)cc2C(=O)O)cc2ccn(C)c12` [Example 603, 5-cyclopropyl-2-((7-(3-ethoxypropyl)-1-methyl-1H-indol-5-yl)amino)nicotinic acid], for which the IC50 lay in the range of 10 to 100 nM.

For `COc1cccc(-c2cn(C)c3ccc(Nc4ncc(C5CC5)cc4C(=O)O)cc23)c1` [Example 577, 5-cyclopropyl-2-((3-(3-methoxyphenyl)-1-methyl-1H-indol-5-yl)amino)nicotinic acid], the IC50 was in the range of 100 to 1000 nM.

Take `O=C(O)c1cc(C2CC2)cnc1Nc1cccc2c(N3CCCCC3)nccc12` [Example 473, 5-cyclopropyl-2-(1-(piperidin-1-yl)isoquinolin-5-ylamino)nicotinic acid]: the IC50 lay within 10 to 100 nM.

In the case of `COCCCc1cccc(Cn2ccc3cc(Nc4ncc(C5CC5)cc4C(=O)O)ccc32)c1` [Example 509, 5-cyclopropyl-2-((1-(3-(3-methoxypropyl)benzyl)-1H-indol-5-yl)amino)nicotinic acid], the IC50 was no more than 10 nM.

For the molecule `O=C(O)c1cc(C2CC2)cnc1Nc1cccc2c1ccn2CC1CCCC1` [Example 537, 2-((1-(Cyclopentylmethyl)-1H-indol-4-yl)amino)-5-cyclopropylnicotinic acid], the IC50 is no more than 10 nM.

Regarding `O=C(O)c1cc(C2CC2)cnc1Nc1ccc2c(c1)OCC(=O)N2c1ccccc1` [Example 399, 5-cyclopropyl-2-((3-oxo-4-phenyl-3,4-dihydro-2H-benzo[b][1,4]oxazin-7-yl)amino)nicotinic acid], the IC50 was in the range of 100 to 1000 nM.

For `O=C(O)c1cc(C2CC2)cnc1Nc1cccc2c(-c3ccccc3)nccc12` [Example 185, 5-cyclopropyl-2-((1-phenylisoquinolin-5-yl)amino)nicotinic acid], the IC50 was no more than 10 nM.

Regarding `Cn1ccc2cc(Nc3ncc(C4CC4)cc3C(=O)O)cc(-c3ccccc3OC(F)(F)F)c21` [Example 491, 5-cyclopropyl-2-((1-methyl-7-(2-(trifluoromethoxy)phenyl)-1H-indol-5-yl)amino)nicotinic acid], the IC50 is no more than 10 nM.

As for `COc1ccc(-c2cn(C)c3ccc(Nc4ncc(C5CC5)cc4C(=O)O)cc23)cc1` [Example 579, 5-cyclopropyl-2-((3-(4-methoxyphenyl)-1-methyl-1H-indol-5-yl)amino)nicotinic acid], the IC50 fell in the range of 100 to 1000 nM.

With `Cn1ccc2cc(Nc3ncc(C4CC4)cc3C(=O)O)cc(-c3ccc(Cl)cc3)c21` [Example 490, 2-((7-(4-chlorophenyl)-1-methyl-1H-indol-5-yl)amino)-5-cyclopropylnicotinic acid], the IC50 was no more than 10 nM.

On to `O=C(O)c1nc(C2CC2)ccc1Nc1ccc2c(ccn2Cc2ccccc2)c1` [Example 210, 3-((1-benzyl-1H-indol-5-yl)amino)-6-cyclopropylpicolinic acid], for which the IC50 was 10 to 100 nM.

In the case of `O=C(O)c1cc(C2CC2)cnc1Nc1ccc2c(c1)Cc1ccccc1-2` [Example 405, 2-((9H-fluoren-2-yl)amino)-5-cyclopropylnicotinic acid], the IC50 lay in the range of 10 to 100 nM.

For the molecule `O=C(O)c1cc(Cl)ccc1Nc1ccc2c(ccn2-c2cnccn2)c1` [Example 313, 5-chloro-2-((1-(pyrazin-2-yl)-1H-indol-5-yl)amino)benzoic acid], the IC50 lay in the range of 100 to 1000 nM.

Take `Cn1cc(-c2ccccc2)c2cc(Nc3ncc(Cl)cc3C(=O)O)ccc21` [Example 647, 5-chloro-2-((1-methyl-3-phenyl-1H-indol-5-yl)amino)nicotinic acid]: the IC50 lay in the range of 10 to 100 nM.

Consider `O=C(O)c1cc(C2CC2)cnc1Nc1ccc2c(ccn2-c2cccc(F)c2)c1` [Example 231, 5-cyclopropyl-2-((1-(3-fluorophenyl)-1H-indol-5-yl)amino)nicotinic acid], for which the IC50 is no more than 10 nM.

As to `O=C(O)c1cc(C2CC2)cnc1Nc1ccc2c(-c3ccccc3)ncnc2c1` [Example 529, 5-cyclopropyl-2-((4-phenylquinazolin-7-yl)amino)nicotinic acid], the IC50 was in the range of 10 to 100 nM.

With `Cn1cc(C2CCCC2)c2cc(Nc3ncc(C4CC4)cc3C(=O)O)ccc21` [Example 614, 2-((3-cyclopentyl-1-methyl-1H-indol-5-yl)amino)-5-cyclopropylnicotinic acid], the IC50 was 10 to 100 nM.

As for `Cn1ccc2cc(Nc3ncc(C4CC4)cc3C(=O)O)cc(/C=C/C(C)(C)C)c21` [Example 594, 5-cyclopropyl-2-((7-((1E)-3,3-dimethylbut-1-en-1-yl)-1-methyl-1H-indol-5-yl)amino)nicotinic acid], the IC50 was no more than 10 nM.

With `O=C(O)c1cc(C2CC2)cnc1Nc1ccc2c(ccn2Cc2ccc(C(F)(F)F)cc2)c1` [Example 451, 5-cyclopropyl-2-((1-(4-(trifluoromethyl)benzyl)-1H-indol-5-yl)amino)nicotinic acid], the IC50 was in the range of 10 to 100 nM.

With `O=C(O)c1cc(Cl)ccc1Nc1ccnc2c1ccn2Cc1ccccc1` [Example 9, 2-((1-benzyl-1H-pyrrolo(2,3-b)pyridin-4-yl)amino)-5-chlorobenzoic acid], the IC50 lay in the range of 10 to 100 nM.

With `O=C(O)c1cc(C2CC2)cnc1Nc1cccc2c1ccn2-c1ccccc1` [Example 433, 5-cyclopropyl-2-((1-phenyl-1H-indol-4-yl)amino)nicotinic acid], the IC50 is no more than 10 nM.

On to `CC(C)c1cnc(Nc2ccc3c(ccn3Cc3ccccc3)c2)c(C(=O)O)c1` [Example 379, 2-((1-benzyl-1H-indol-5-yl)amino)-5-isopropylnicotinic acid], for which the IC50 was 10 to 100 nM.

As for `CCO/C=C/c1cc(Nc2ncc(C3CC3)cc2C(=O)O)cc2ccn(C)c12` [Example 604, 5-cyclopropyl-2-((7-((E)-2-ethoxyethenyl)-1-methyl-1H-indol-5-yl)amino)nicotinic acid], the IC50 fell in the range of 10 to 100 nM.

Turning to `O=C(O)c1cc(C2CC2)cnc1Nc1ccc2c(-c3ccccc3)nccc2c1` [Example 527, 5-cyclopropyl-2-((1-phenylisoquinolin-6-yl)amino)nicotinic acid], the IC50 is no more than 10 nM.

On to `Cc1c(Nc2ncc(C3CC3)cc2C(=O)O)ccc2c1ccn2Cc1ccccc1` [Example 573], for which the IC50 was no more than 10 nM.
